Experimental data as given in article PMC2735258 (Journal of medicinal chemistry, 2009).
“And” between values parts separate entries of the source, which are not always exact repeats. Equal entries are not always repeated. Where two headings read alike, the source gives them in different places. Square brackets hold non-standard residues; d marks the D form. Ends that are not written are not given here. * marks the point of attachment. pY = N[C@@H](Cc1ccc(OP(=O)(O)O)cc1)C(=O)O; pCinn = not defined here; NHBn = c1ccc(CN*)cc1

Legend:
Stat3 [1] = biological target: T1, Stat3 (Homo sapiens, UniProt P40763); settings: cited from earlier work
T1 sequence (P40763 whole entry, species assumed, the tested form may be a part): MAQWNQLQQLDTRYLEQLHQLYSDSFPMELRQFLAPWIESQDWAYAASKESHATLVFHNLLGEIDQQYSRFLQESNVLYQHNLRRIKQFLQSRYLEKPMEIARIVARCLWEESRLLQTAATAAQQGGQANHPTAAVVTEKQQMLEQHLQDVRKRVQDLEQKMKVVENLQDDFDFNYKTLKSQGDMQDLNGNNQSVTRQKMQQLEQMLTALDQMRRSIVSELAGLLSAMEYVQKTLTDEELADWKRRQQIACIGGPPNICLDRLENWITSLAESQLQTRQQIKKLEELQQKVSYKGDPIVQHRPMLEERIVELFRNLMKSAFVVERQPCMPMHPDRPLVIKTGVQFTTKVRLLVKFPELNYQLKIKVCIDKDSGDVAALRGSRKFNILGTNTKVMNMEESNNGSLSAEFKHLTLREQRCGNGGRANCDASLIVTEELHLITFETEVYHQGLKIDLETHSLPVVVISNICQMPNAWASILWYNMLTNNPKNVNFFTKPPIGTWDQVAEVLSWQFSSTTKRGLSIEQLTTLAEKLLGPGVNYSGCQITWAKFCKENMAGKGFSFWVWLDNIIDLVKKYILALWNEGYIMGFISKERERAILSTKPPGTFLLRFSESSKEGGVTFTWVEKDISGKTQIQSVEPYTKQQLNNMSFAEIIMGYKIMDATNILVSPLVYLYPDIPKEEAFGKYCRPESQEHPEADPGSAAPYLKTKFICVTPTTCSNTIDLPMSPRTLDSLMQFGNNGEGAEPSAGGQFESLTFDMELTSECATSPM

Stat3 [2] = biological target: T1, Stat3; assay: Stat3 SH2 domain affinity, fluorescence polarization; type: binding; settings: for fold loss in affinity: relative to compound 21; for fold weaker / loss in affinity: relative to compound 28
[3] = lead phosphopeptides, ref Coleman et al.[16]

pCinn-Leu-Pro-Gln-NHBn ([pCinn]LPQ-NHBn; reading uncertain; also: printed as pCinn-Leu-Pro-Gln-NHBn) [Compound 17]
IC50 (Stat3 [1]; ref [69]): 138 ± 8 nM

O=C(O)CCCNC(=O)[C@@H]1Cc2cccc3c2N1C(=O)[C@@H](NC(=O)/C=C/c1ccc(OP(=O)(O)O)cc1)CC3 [Compound 24, pCinn-Haic-Gaba]
fold loss in affinity (Stat3 [2]): 5 fold

CS(=O)(=O)CC[C@H](NC(=O)[C@@H]1Cc2cccc3c2N1C(=O)[C@@H](NC(=O)/C=C/c1ccc(OP(=O)(O)O)cc1)CC3)C(N)=O [Compound 35, pCinn-Haic-Met(O2)-NH2]
fold weaker / loss in affinity (Stat3 [2]): ~10 fold

NC(=O)[C@@H]1Cc2cccc3c2N1C(=O)[C@@H](NC(=O)/C=C/c1ccc(OP(=O)(O)O)cc1)CC3 [Compound 31, pCinn-Haic-NH2]
fold weaker (Stat3 [2]; relative to compound 24): 42 fold
fold weaker / loss in affinity (Stat3 [2]): 150 fold

7: XXX-Leu-Pro-Gln-Thr-NH2 with XXX = Ac-pTic; drawing shows XXX only [Compound 7]
IC50 (Stat3 [2]; fluorescence polarization): > 100000 nM

Ac-Tyr(PO3H2)-Leu-Pro-Gln-Thr-NH2 (Ac-[pY]LPQT-NH2; SMILES CC(=O)N[C@@H](Cc1ccc(OP(=O)(O)O)cc1)C(=O)N[C@@H](CC(C)C)C(=O)N1CCC[C@H]1C(=O)N[C@@H](CCC(N)=O)C(=O)N[C@H](C(N)=O)[C@@H](C)O) [Compound 2]
IC50 (Stat3 [1]; [3]): 740 nM and 739 nM

Ac-[pY]LPQ-NH2 [Compound 3]
IC50 (Stat3 [1]; [3]): 856 ± 41 nM

NC(=O)CC[C@H](NC(=O)[C@@H]1Cc2cccc3c2N1C(=O)[C@@H](NC(=O)/C=C/c1ccc(OP(=O)(O)O)cc1)CC3)C(=O)O [Compound 26, pCinn-Haic-Gln-OH]
fold loss in affinity (Stat3 [2]): 2 fold

C[C@H](NC(=O)[C@@H]1Cc2cccc3c2N1C(=O)[C@@H](NC(=O)/C=C/c1ccc(OP(=O)(O)O)cc1)CC3)C(N)=O [Compound 32, pCinn-Haic-Ala-NH2]
activity / affinity for Stat3 in words (Stat3 [2]): micromolar range

NC(=O)CC[C@H](NC(=O)[C@@H]1CC[C@@H]2CC[C@H](NC(=O)/C=C/c3ccc(OP(=O)(O)O)cc3)C(=O)N21)C(=O)NCc1ccccc1 [Compound 18, pCinn-(3S,6S,9S)-ABN-Gln-NHBn]
fold lower affinity (Stat3 [2]; relative to Leu-Pro analogue 17): 4 fold

Ac-Tyr(PO3H2)-Leu-Pro-Gln-NHBn (Ac-[pY]LPQ-NHBn; SMILES CC(=O)N[C@@H](Cc1ccc(OP(=O)(O)O)cc1)C(=O)N[C@@H](CC(C)C)C(=O)N1CCC[C@H]1C(=O)N[C@@H](CCC(N)=O)C(=O)NCc1ccccc1) [Compound 4]
IC50 (Stat3 [1]; [3]): 409 ± 15 nM

C[S+]([O-])CC[C@H](NC(=O)[C@@H]1Cc2cccc3c2N1C(=O)[C@@H](NC(=O)/C=C/c1ccc(OP(=O)(O)O)cc1)CC3)C(N)=O (stereo partly shown) [Compound 34, pCinn-Haic-Met(O)-NH2]
fold weaker / loss in affinity (Stat3 [2]): ~10 fold
